Test results taken from patent publication US10954269B2, “Anti-inflammatory tripeptides” (Dr. August Wolff Gmbh & Co. KG Arzneimittel, priority 2013, dated 2021).

Assays:
primary murine T-cells = experiment: Cytokine secretion on protein level in activated primary murine T-cells (13-plex FACS / Luminex, supernatant); type: cell-based, C57BL/6 mice; details: 10^−9M
Procedure: (§1) Primary T-cells were isolated from peripheral blood from healthy volunteers and from secondary lymphatic organs from naïve C57BL/6 mice, respectively. The cells were stimulated with phorbol-12-myristate-13-acetate (PMA)/Ionomycin and interferon-gamma (IFN-γ), respectively, for 48 h to activate the cells. The activated cells release pro-inflammatory cytokines. In parallel a human (HaCaT) keratinocyte cell line was activated with PMA/Ionomycin and IFN-γ, respectively, too. […] At the same time release of anti-inflammatory IL-10 was inhibited. Two days after addition of PMA/Ionomycin and IFN-γ, respectively, the induction of IL-1 secretion was determined in the supernatant for proving that the cells are activated. […] The anti-inflammatory properties of the tripeptides were determined 48 h and 72 h following stimulation. A 13-plex-system based FACS analysis was used for showing the reduced secretion of pro-inflammatory cytokines in the supernatant. Data for IL-1, IL-2, IL-6, IL-12p70 IL-17, IFN-γ and TNF-α are considered to be most relevant. Thus, analysis of the anti-inflammatory properties of the tripeptides is preferably based on the results obtained for these analytes. […] Using this method the gene expression of pro-inflammatory markers like IL-6, IL-17, IFN-γ and TNF-α was determined.
(§2) In a third experiment murine and human T cells and HaCaT cells were stimulated with PMA/Ionomycin and treated with Examples 14, 15, 16 and 17 at 10^−7 M, 10^−9 M and 10^−11 M. Cytokine concentrations (IFN-γ, IL-17 and IL-10 for T cells and IFN-γ for HaCat) were assessed in the supernatants using the Luminex technology. Expression of genes coding for Il-1β, IL-6 and TNF-α was determined. […] Moreover, concentrations of pro-inflammatory cytokines IFN-γ and IL-17 was reduced in the supernatants whereas the concentration of anti-inflammatory cytokine IL-10 was increased.
The anti-inflammatory and immunomodulatory effects of selected examples of the present invention were compared with common immunosuppressants. Thus, cells activated with PMA/Ionomycin and IFN-γ, respectively, were stimulated with MMF or dexamethasone. Following stimulation the secretion of pro-inflammatory cytokines was analyzed on protein and gene level (Table 9 and FIGS. 4-6).

[1] = tested on: human keratinocyte cell line (HaCaT); experiment: Cytokine secretion on protein level in activated human keratinocyte cell line HaCaT (13-plex FACS / Luminex, supernatant); type: cell-based; details: for IL-1 cytokine concentration / IL-2 cytokine concentration / IL-4 cytokine concentration / IL-5 cytokine concentration / IL-6 cytokine concentration / IL-9 cytokine concentration / IL-10 cytokine concentration / IL-13 cytokine concentration / IL-17 cytokine concentration / TNF-α cytokine concentration / IL-12p70 cytokine concentration / IL-22 cytokine concentration / IFN-γ cytokine concentration: 10^−9M; for IL-12p70 cytokine concentration / IL-22 cytokine concentration: excluded from the final assessment
Procedure: as §1
as §2, with “increased. […]” for “increased.”
(§3) For the biological assay two human cell lines of different origin were chosen to allow for translation of the results obtained. A HaCaT cell is a cell type belonging to an immortal human keratinocyte line used in scientific research. Its use in research allows for the characterization of human keratinocyte using a model that is reproducible and representing a human epithelial cell line. In contrast human T-lymphocytes (T-cells) are a type of lymphocyte (itself a type of white blood cell) that play a central role in cell-mediated inflammation/immunity.

primary human T-cells = experiment: Cytokine secretion on protein level in activated primary human T-cells (13-plex FACS / Luminex, supernatant); type: cell-based; details: 10^−9M
Procedure: as §1
as §2, with “increased. […]” for “increased.”
as §3

[2] = primary murine T-cells stimulated with IFN-γ
[3] = primary murine T-cells stimulated with PBS
[4] = primary murine T-cells stimulated with PMA/Ionomycin
[5] = primary murine T-cells stimulated with PMA/Ionomycin, 1:10 dilution of the supernatants
[6] = HaCaT stimulated with PMA/Ionomycin
[7] = primary human T-cells stimulated with IFN-γ
[8] = primary human T-cells stimulated with PBS
[9] = primary human T-cells stimulated with PMA/Ionomycin

Substance: H-(L)-Lys-(D)-Pro-N^α-methyl-(L)-Thr-OH [Example 2]
- IL-1 cytokine concentration (primary murine T-cells; [2]): 22.78 pg/mL
- IL-2 cytokine concentration (primary murine T-cells; [2]): 0 pg/mL
- IL-4 cytokine concentration (primary murine T-cells; [2]): 0 pg/mL
- IL-5 cytokine concentration (primary murine T-cells; [2]): 72.11 pg/mL
- IL-6 cytokine concentration (primary murine T-cells; [2]): 23.14 pg/mL
- IL-10 cytokine concentration (primary murine T-cells; [2]): 72.95 pg/mL
- IL-13 cytokine concentration (primary murine T-cells; [2]): 0 pg/mL
- IL-17 cytokine concentration (primary murine T-cells; [2]): 0 pg/mL
- IL-21 cytokine concentration (primary murine T-cells; [2]): 0 pg/mL
- IL-22 cytokine concentration (primary murine T-cells; [2]): 8.52 pg/mL
- IL-27 cytokine concentration (primary murine T-cells; [2]): 1234.48 pg/mL
- TNF-α cytokine concentration (primary murine T-cells; [2]): 0 pg/mL
- IFN-γ cytokine concentration (primary murine T-cells; [3]): 2375.02 pg/mL
- IL-1 cytokine concentration (primary murine T-cells; [3]): 36.6 pg/mL
- IL-2 cytokine concentration (primary murine T-cells; [3]): 138.15 pg/mL
- IL-4 cytokine concentration (primary murine T-cells; [3]): 0 pg/mL
- IL-5 cytokine concentration (primary murine T-cells; [3]): 45.71 pg/mL
- IL-6 cytokine concentration (primary murine T-cells; [3]): 0 pg/mL
- IL-10 cytokine concentration (primary murine T-cells; [3]): 0 pg/mL
- IL-13 cytokine concentration (primary murine T-cells; [3]): 0 pg/mL
- IL-17 cytokine concentration (primary murine T-cells; [3]): 0 pg/mL
- IL-21 cytokine concentration (primary murine T-cells; [3]): 0 pg/mL
- IL-22 cytokine concentration (primary murine T-cells; [3]): 0 pg/mL
- IL-27 cytokine concentration (primary murine T-cells; [3]): 0 pg/mL
- TNF-α cytokine concentration (primary murine T-cells; [3]): 0 pg/mL
- IL-1 cytokine concentration (primary murine T-cells; [4]): 0 pg/mL
- IL-4 cytokine concentration (primary murine T-cells; [4]): 129.47 pg/mL
- IL-5 cytokine concentration (primary murine T-cells; [4]): 350.49 pg/mL
- IL-6 cytokine concentration (primary murine T-cells; [4]): 338.28 pg/mL
- IL-10 cytokine concentration (primary murine T-cells; [4]): 155.42 pg/mL
- IL-13 cytokine concentration (primary murine T-cells; [4]): 4703.82 pg/mL
- IL-17 cytokine concentration (primary murine T-cells; [4]): 649.14 pg/mL
- IL-21 cytokine concentration (primary murine T-cells; [4]): 0 pg/mL
- IL-22 cytokine concentration (primary murine T-cells; [4]): 670.15 pg/mL
- IL-27 cytokine concentration (primary murine T-cells; [4]): 778.4 pg/mL
- TNF-α cytokine concentration (primary murine T-cells; [4]): 628.15 pg/mL
- IFN-γ* cytokine concentration (primary murine T-cells; [5]): 0 pg/mL
- IL-2* cytokine concentration (primary murine T-cells; [5]): 744.58 pg/mL
- IL-1 cytokine concentration ([1]; HaCaT stimulated with IFN-γ): 265.46 pg/mL
- IL-2 cytokine concentration ([1]; HaCaT stimulated with IFN-γ): 96.34 pg/mL
- IL-4 cytokine concentration ([1]; HaCaT stimulated with IFN-γ): 71.76 pg/mL
- IL-5 cytokine concentration ([1]; HaCaT stimulated with IFN-γ): 109.73 pg/mL
- IL-6 cytokine concentration ([1]; HaCaT stimulated with IFN-γ): 641.89 pg/mL
- IL-9 cytokine concentration ([1]; HaCaT stimulated with IFN-γ): 104.08 pg/mL
- IL-10 cytokine concentration ([1]; HaCaT stimulated with IFN-γ): 129.2 pg/mL
- IL-13 cytokine concentration ([1]; HaCaT stimulated with IFN-γ): 61.18 pg/mL
- IL-17 cytokine concentration ([1]; HaCaT stimulated with IFN-γ): 629.16 pg/mL
- TNF-α cytokine concentration ([1]; HaCaT stimulated with IFN-γ): 79.97 pg/mL
- IL-12p70 cytokine concentration ([1]; HaCaT stimulated with IFN-γ): 1904.09 pg/mL
- IL-22 cytokine concentration ([1]; HaCaT stimulated with IFN-γ): 0 pg/mL
- IFN-γ cytokine concentration ([1]; HaCaT stimulated with PBS): 397.45 pg/mL
- IL-1 cytokine concentration ([1]; HaCaT stimulated with PBS): 251.25 pg/mL
- IL-2 cytokine concentration ([1]; HaCaT stimulated with PBS): 177.85 pg/mL
- IL-4 cytokine concentration ([1]; HaCaT stimulated with PBS): 90.8 pg/mL
- IL-5 cytokine concentration ([1]; HaCaT stimulated with PBS): 189.12 pg/mL
- IL-6 cytokine concentration ([1]; HaCaT stimulated with PBS): 75.53 pg/mL
- IL-9 cytokine concentration ([1]; HaCaT stimulated with PBS): 139.65 pg/mL
- IL-10 cytokine concentration ([1]; HaCaT stimulated with PBS): 151.26 pg/mL
- IL-13 cytokine concentration ([1]; HaCaT stimulated with PBS): 69.36 pg/mL
- IL-17 cytokine concentration ([1]; HaCaT stimulated with PBS): 569.9 pg/mL
- TNF-α cytokine concentration ([1]; HaCaT stimulated with PBS): 84.84 pg/mL
- IL-12p70 cytokine concentration ([1]; HaCaT stimulated with PBS): 1864.02 pg/mL
- IL-22 cytokine concentration ([1]; HaCaT stimulated with PBS): 14446.9 pg/mL
- IFN-γ cytokine concentration [1, 6]: 704.33 pg/mL
- IL-1 cytokine concentration [1, 6]: 204.23 pg/mL
- IL-2 cytokine concentration [1, 6]: 130.08 pg/mL
- IL-4 cytokine concentration [1, 6]: 58.48 pg/mL
- IL-5 cytokine concentration [1, 6]: 129.65 pg/mL
- IL-6 cytokine concentration [1, 6]: 129.99 pg/mL
- IL-9 cytokine concentration [1, 6]: 104.14 pg/mL
- IL-10 cytokine concentration [1, 6]: 97.55 pg/mL
- IL-13 cytokine concentration [1, 6]: 69.36 pg/mL
- IL-17 cytokine concentration [1, 6]: 369.01 pg/mL
- TNF-α cytokine concentration [1, 6]: 62.15 pg/mL
- IL-12p70 cytokine concentration [1, 6]: 0 pg/mL
- IL-22 cytokine concentration [1, 6]: 14806.4 pg/mL
- secretion / expression of pro-inflammatory cytokines (supernatant) ([1]; activated human keratinocytes): decreased secretion
- IL-1 cytokine concentration (primary human T-cells; [7]): 314.88 pg/mL
- IL-2 cytokine concentration (primary human T-cells; [7]): 740.3 pg/mL
- IL-4 cytokine concentration (primary human T-cells; [7]): 116.26 pg/mL
- IL-5 cytokine concentration (primary human T-cells; [7]): 177.72 pg/mL
- IL-6 cytokine concentration (primary human T-cells; [7]): 97.68 pg/mL
- IL-9 cytokine concentration (primary human T-cells; [7]): 106.37 pg/mL
- IL-10 cytokine concentration (primary human T-cells; [7]): 146.79 pg/mL
- IL-12p70 cytokine concentration (primary human T-cells; [7]): 804.93 pg/mL
- IL-13 cytokine concentration (primary human T-cells; [7]): 97.39 pg/mL
- IL-17 cytokine concentration (primary human T-cells; [7]): 168.9 pg/mL
- IL-22 cytokine concentration (primary human T-cells; [7]): 21970.6 pg/mL
- TNF-α cytokine concentration (primary human T-cells; [7]): 188.29 pg/mL
- IFN-γ cytokine concentration (primary human T-cells; [8]): 0 pg/mL
- IL-1 cytokine concentration (primary human T-cells; [8]): 305.62 pg/mL
- IL-2 cytokine concentration (primary human T-cells; [8]): 985.16 pg/mL
- IL-4 cytokine concentration (primary human T-cells; [8]): 151.33 pg/mL
- IL-5 cytokine concentration (primary human T-cells; [8]): 310.87 pg/mL
- IL-6 cytokine concentration (primary human T-cells; [8]): 84.38 pg/mL
- IL-9 cytokine concentration (primary human T-cells; [8]): 116.55 pg/mL
- IL-10 cytokine concentration (primary human T-cells; [8]): 253.29 pg/mL
- IL-12p70 cytokine concentration (primary human T-cells; [8]): 226.23 pg/mL
- IL-13 cytokine concentration (primary human T-cells; [8]): 90.3 pg/mL
- IL-17 cytokine concentration (primary human T-cells; [8]): 238.4 pg/mL
- IL-22 cytokine concentration (primary human T-cells; [8]): 2242.06 pg/mL
- TNF-α cytokine concentration (primary human T-cells; [8]): 211.85 pg/mL
- IFN-γ cytokine concentration (primary human T-cells; [9]): 2726.77 pg/mL
- IL-1 cytokine concentration (primary human T-cells; [9]): 69689.2 pg/mL
- IL-2 cytokine concentration (primary human T-cells; [9]): 12000 pg/mL
- IL-4 cytokine concentration (primary human T-cells; [9]): 239.02 pg/mL
- IL-5 cytokine concentration (primary human T-cells; [9]): 325.76 pg/mL
- IL-6 cytokine concentration (primary human T-cells; [9]): 1533.99 pg/mL
- IL-9 cytokine concentration (primary human T-cells; [9]): 142.93 pg/mL
- IL-10 cytokine concentration (primary human T-cells; [9]): 3938.15 pg/mL
- IL-12p70 cytokine concentration (primary human T-cells; [9]): 1413.17 pg/mL
- IL-13 cytokine concentration (primary human T-cells; [9]): 760.63 pg/mL
- IL-17 cytokine concentration (primary human T-cells; [9]): 3476.92 pg/mL
- IL-22 cytokine concentration (primary human T-cells; [9]): 24128.2 pg/mL
- TNF-α cytokine concentration (primary human T-cells; [9]): 3600 pg/mL
